# Assay results reported in ChEMBL document CHEMBL1201862, “PubChem BioAssay data set” (2004).
#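 Briefly, cells in 96-well plates were exposed to five compound concentrations for 48 h, and endpoints were estimated by linear interpolation. GI50 is the concentration that inhibits growth by half.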 The source made the active and inactive calls. Rule as the data show it: active = GI50 up to about 1.1 µM and inactive = higher.
# Columns and labels:
# Assay in all cases: growth of human tumour cells (NCI), 48 h
# OVCAR-8 = tested on: OVCAR-8
# 786-0 = tested on: 786-0
# COLO 205 = tested on: COLO 205
# MOLT-4 = tested on: MOLT-4
# Malme-3M = tested on: Malme-3M
# RPMI-8226 = tested on: RPMI-8226
# SF-268 = tested on: SF-268
# NCI-H460 = tested on: NCI-H460
# SK-MEL-2 = tested on: SK-MEL-2
# SNB-19 = tested on: SNB-19
# U-251 = tested on: U-251
# LOX IMVI = tested on: LOX IMVI
# HCC 2998 = tested on: HCC 2998
# SF-539 = tested on: SF-539
# OVCAR-4 = tested on: OVCAR-4
# ACHN = tested on: ACHN
# HCT-116 = tested on: HCT-116
# A498 = tested on: A498
# HOP-92 = tested on: HOP-92
Structure (SMILES),GI50 (OVCAR-8),GI50 (786-0),GI50 (COLO 205),GI50 (MOLT-4),GI50 (Malme-3M),GI50 (RPMI-8226),GI50 (SF-268),GI50 (NCI-H460),GI50 (SK-MEL-2),GI50 (SNB-19),GI50 (U-251),GI50 (LOX IMVI),GI50 (HCC 2998),GI50 (SF-539),GI50 (OVCAR-4),GI50 (ACHN),GI50 (HCT-116),GI50 (A498),GI50 (HOP-92)
COc1cc2cc(C(=O)N3CC(CCl)c4c3cc(O)c3ccccc43)[nH]c2c(OC)c1OC (centres undefined),< 0.005 µM (active),< 0.005 µM (active),< 0.005 µM (active),< 0.005 µM (active),< 0.005 µM (active),< 0.005 µM (active),< 0.005 µM (active),< 0.005 µM (active),< 0.005 µM (active),< 0.005 µM (active),< 0.005 µM (active),< 0.005 µM (active),< 0.005 µM (active),< 0.005 µM (active),< 0.005 µM (active),< 0.005 µM (active),< 0.005 µM (active),< 0.005 µM (active),
O=C1CCCc2c1c1c(n2Cc2ccccc2)-c2ccccc2C1=O,16.4 µM (inactive),21.6 µM (inactive),17.9 µM (inactive),,15.3 µM (inactive),3.14 µM (inactive),22.2 µM (inactive),25.8 µM (inactive),18.9 µM (inactive),15.4 µM (inactive),20.7 µM (inactive),17.9 µM (inactive),15.2 µM (inactive),21.1 µM (inactive),14 µM (inactive),16 µM (inactive),14.4 µM (inactive),,26.9 µM (inactive)
Cc1nc2sccn2c1C(=O)NN,> 100 µM (inactive),> 100 µM (inactive),> 100 µM (inactive),> 100 µM (inactive),> 100 µM (inactive),> 100 µM (inactive),> 100 µM (inactive),> 100 µM (inactive),> 100 µM (inactive),> 100 µM (inactive),> 100 µM (inactive),> 100 µM (inactive),> 100 µM (inactive),> 100 µM (inactive),,> 100 µM (inactive),> 100 µM (inactive),,> 100 µM (inactive)
CCOC(=O)CN1C(=O)NC(C)(c2ccccc2)C1=O (centres undefined),> 100 µM (inactive),> 100 µM (inactive),> 100 µM (inactive),> 100 µM (inactive),,> 100 µM (inactive),> 100 µM (inactive),,> 100 µM (inactive),> 100 µM (inactive),> 100 µM (inactive),> 100 µM (inactive),> 100 µM (inactive),> 100 µM (inactive),> 100 µM (inactive),> 100 µM (inactive),> 100 µM (inactive),> 100 µM (inactive),> 100 µM (inactive)
CCOC(=O)CSc1nc(-c2ccccc2)c(C#N)c(=O)[nH]1,> 100 µM (inactive),> 100 µM (inactive),> 100 µM (inactive),> 100 µM (inactive),,> 100 µM (inactive),> 100 µM (inactive),> 100 µM (inactive),> 100 µM (inactive),> 100 µM (inactive),> 100 µM (inactive),,> 100 µM (inactive),> 100 µM (inactive),> 100 µM (inactive),> 100 µM (inactive),> 100 µM (inactive),> 100 µM (inactive),> 100 µM (inactive)
C/C(=N/O)c1ccc2c(c1)/C(=N/O)c1cc(/C(C)=N/O)ccc1-2,16.7 µM (inactive),17.2 µM (inactive),17.8 µM (inactive),2.49 µM (inactive),11 µM (inactive),26.5 µM (inactive),14.9 µM (inactive),17.7 µM (inactive),23.9 µM (inactive),13.8 µM (inactive),15.3 µM (inactive),13 µM (inactive),15.3 µM (inactive),15.5 µM (inactive),16.3 µM (inactive),8.53 µM (inactive),20.1 µM (inactive),,26.1 µM (inactive)
COc1ccc(C(=O)C(c2ccc(OC)cc2)C2(O)C(=O)Nc3c(C)cc(Cl)cc32)cc1 (centres undefined),92.7 µM (inactive),> 100 µM (inactive),> 100 µM (inactive),14.1 µM (inactive),> 100 µM (inactive),14.4 µM (inactive),82.8 µM (inactive),> 100 µM (inactive),> 100 µM (inactive),> 100 µM (inactive),45.2 µM (inactive),,> 100 µM (inactive),69.8 µM (inactive),63.2 µM (inactive),> 100 µM (inactive),70.3 µM (inactive),> 100 µM (inactive),21.9 µM (inactive)
O=C(CC1(O)C(=O)Nc2c(Cl)ccc(Cl)c21)c1ccc(F)cc1 (centres undefined),36.3 µM (inactive),31.2 µM (inactive),96.6 µM (inactive),25 µM (inactive),69.5 µM (inactive),18 µM (inactive),36.1 µM (inactive),54.8 µM (inactive),48.5 µM (inactive),46.6 µM (inactive),67.3 µM (inactive),32.7 µM (inactive),82.4 µM (inactive),,31 µM (inactive),66.1 µM (inactive),,,30.4 µM (inactive)
C=CCC1C(=O)CC2(C)CC(=O)C(CC=C)C12C (centres undefined),> 100 µM (inactive),> 100 µM (inactive),> 100 µM (inactive),> 100 µM (inactive),> 100 µM (inactive),> 100 µM (inactive),> 100 µM (inactive),> 100 µM (inactive),,> 100 µM (inactive),> 100 µM (inactive),> 100 µM (inactive),> 100 µM (inactive),> 100 µM (inactive),91 µM (inactive),> 100 µM (inactive),> 100 µM (inactive),,> 100 µM (inactive)
O=C1C(=Cc2ccc(F)cc2)C(=O)c2ccccc21,> 100 µM (inactive),> 100 µM (inactive),> 100 µM (inactive),42 µM (inactive),> 100 µM (inactive),49.8 µM (inactive),> 100 µM (inactive),> 100 µM (inactive),> 100 µM (inactive),> 100 µM (inactive),> 100 µM (inactive),,> 100 µM (inactive),> 100 µM (inactive),> 100 µM (inactive),> 100 µM (inactive),> 100 µM (inactive),> 100 µM (inactive),0.925 µM (active)
O=c1c2ccccc2nc(-c2ccccc2Cl)n1NC1OC(CO)C(O)C(O)C1O (centres undefined),> 100 µM (inactive),> 100 µM (inactive),> 100 µM (inactive),> 100 µM (inactive),> 100 µM (inactive),> 100 µM (inactive),> 100 µM (inactive),> 100 µM (inactive),> 100 µM (inactive),> 100 µM (inactive),> 100 µM (inactive),,> 100 µM (inactive),> 100 µM (inactive),> 100 µM (inactive),> 100 µM (inactive),> 100 µM (inactive),> 100 µM (inactive),> 100 µM (inactive)
CCCCCCCCCCCCCCCC(=O)NCC(COP(=O)([O-])OCC[N+](C)(C)C)OCC (centres undefined),4.42 µM (inactive),2.54 µM (inactive),2.31 µM (inactive),3.24 µM (inactive),16.9 µM (inactive),2.9 µM (inactive),12.8 µM (inactive),2.96 µM (inactive),,3.71 µM (inactive),4.16 µM (inactive),16.3 µM (inactive),1.55 µM (inactive),16.2 µM (inactive),3.21 µM (inactive),15 µM (inactive),11.2 µM (inactive),> 10 µM (inactive),3.52 µM (inactive)
